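Briefly, cells in 96-well plates were exposed to five compound concentrations for 48 h, and endpoints were estimated by linear interpolation. GI50 = concentration required for 50% inhibition of growth.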 Calls of active or inactive are those of the source. No stated cut-off is given here; in the data, active = GI50 up to about 1.1 µM and inactive = higher.

Some test systems named below: 786-0; A498; BT-549; DU-145; HCT-15; HOP-62; HT-29; Hs-578T; KM12; LXFL 529; MDA-N; NCI/ADR-RES; OVCAR-5; OVCAR-8; RXF 393; SF-268; SF-295; SF-539; SK-OV-3; UO-31.
What all share (test): growth of human tumour cells (NCI), 48 h

For `C=C(c1ccccc1)[C@@]1(O)CC[C@@H]1N(CC#N)Cc1ccccc1`, the GI50 in the assay on 786-0 is 18.4 µM (inactive); with A498, 13.6 µM (inactive); in the assay with BT-549, 19.9 µM (inactive); in the assay with DU-145 it was 80.7 µM (inactive); with HCT-15 it was 18.7 µM; in the assay on HOP-62 it was 97.3 µM (inactive). Moreover, the GI50 with HT-29 was 19.8 µM (inactive); with Hs-578T it was 20.7 µM (inactive); with KM12, 28.6 µM (inactive); with LXFL 529 it was 15.9 µM (inactive); with MDA-N, 22.3 µM (inactive); in the assay with NCI/ADR-RES, 19.7 µM (inactive). Besides, the GI50 in the assay with OVCAR-5 was 53.6 µM (inactive); with OVCAR-8 it was 33.4 µM (inactive); in the assay on RXF 393 it was 17.7 µM (inactive); in the assay on SF-268, 33.5 µM (inactive); in the assay with SF-295 it was 58.1 µM (inactive); with SF-539 it was 29.2 µM (inactive). Further, the GI50 in the assay on SK-OV-3 is 98.9 µM (inactive); in the assay on UO-31, 26.7 µM (inactive).

On to `CC1CSC(=S)N1C(=O)N1C(=S)SCC1C` (stereo not given), for which the GI50 was 27.8 µM (inactive) in the assay on 786-0; 27.5 µM (inactive) with A498; 24.7 µM (inactive) in the assay with BT-549; 19.5 µM (inactive) in the assay with DU-145; 16.5 µM with HCT-15; 43.4 µM (inactive) in the assay with HOP-62. Besides, the GI50 in the assay with HT-29 is 27.4 µM (inactive); in the assay with Hs-578T it was 35.7 µM (inactive); with KM12, 27.8 µM (inactive); in the assay with LXFL 529, 33.4 µM (inactive); with MDA-N, 19.6 µM (inactive); in the assay on NCI/ADR-RES it was 19.1 µM (inactive). Further, the GI50 was 30.3 µM (inactive) in the assay on OVCAR-5; 16.7 µM (inactive) with OVCAR-8; 12.9 µM (inactive) with RXF 393; 26.3 µM (inactive) with SF-268; 45.8 µM (inactive) with SF-295; 19.3 µM (inactive) with SF-539. Moreover, the GI50 is 40.9 µM (inactive) in the assay on SK-OV-3 and 22.8 µM (inactive) with UO-31.

As for `CC1=CC(=O)c2cccc(O)c2C1=O`, the GI50 in the assay with 786-0 is 1.7 µM (inactive); with A498 it was 18.5 µM (inactive); with BT-549, 1.75 µM (inactive); with DU-145, 8.05 µM (inactive); in the assay on HCT-15, 1.56 µM; in the assay with HOP-62 it was 17.1 µM (inactive). The GI50 is 4.27 µM (inactive) in the assay on HT-29; 3.07 µM (inactive) in the assay with Hs-578T; 12.6 µM (inactive) in the assay on KM12; 1.67 µM (inactive) in the assay with LXFL 529; 1.9 µM (inactive) in the assay with MDA-N; 1.82 µM (inactive) in the assay on NCI/ADR-RES. In addition, the GI50 with OVCAR-5 is 8.09 µM (inactive); in the assay with OVCAR-8, 2.56 µM (inactive); in the assay on RXF 393 it was 1.88 µM (inactive); in the assay with SF-268 it was 6.76 µM (inactive); with SF-295 it was 14.3 µM (inactive); with SF-539 it was 5.7 µM (inactive). In addition, the GI50 was 14.3 µM (inactive) in the assay with SK-OV-3 and 1.79 µM (inactive) with UO-31.

In the case of `CC(=O)O[C@H]1CCC2[C@@H]3CCC4Nc5c(cnn5-c5ccccc5)C[C@]4(C)C3CC[C@@]21C` (stereo not given in full), the GI50 is 8.49 µM (inactive) in the assay on 786-0; 30.5 µM (inactive) in the assay with A498; 13.2 µM in the assay with HCT-15; 18.3 µM (inactive) with HOP-62; 8.24 µM (inactive) in the assay with HT-29; 17.7 µM (inactive) in the assay with KM12. The GI50 is 12.6 µM (inactive) in the assay on LXFL 529; 17.4 µM (inactive) with OVCAR-5; 18.2 µM (inactive) in the assay on OVCAR-8; 5.65 µM (inactive) in the assay on RXF 393; 32.5 µM (inactive) in the assay with SF-268; 2.97 µM (inactive) in the assay on SF-295. Moreover, the results for the GI50 in the assay with SF-539, in the assay on SK-OV-3 and with UO-31 were 17.5 µM (inactive), 18.7 µM (inactive) and 11 µM (inactive), respectively.

Take `CC1CCC2(C)C(CC=C(C=O)C2(O)C=O)C12CO2` (stereo not given): the GI50 is 2.4 µM (inactive) in the assay on 786-0; 6.7 µM (inactive) in the assay with A498; 2.14 µM in the assay with HCT-15; 20.9 µM (inactive) in the assay with HOP-62; 2.55 µM (inactive) in the assay with HT-29; 3.21 µM (inactive) in the assay on KM12. For the same compound, the GI50 in the assay with LXFL 529 was 1.54 µM (inactive); in the assay on OVCAR-5, 2.73 µM (inactive); with OVCAR-8, 2.22 µM (inactive); in the assay with RXF 393, 1.48 µM (inactive); in the assay with SF-268, 4.25 µM (inactive); in the assay on SF-295, 3.31 µM (inactive). The GI50 was 2.19 µM (inactive) in the assay with SF-539, 3.27 µM (inactive) in the assay with SK-OV-3 and 1.81 µM (inactive) in the assay with UO-31.

In the case of `CN1CC(=O)N2Cc3ccccc3-n3cccc3C2C1` (stereo not given), the GI50 was > 100 µM (inactive) with 786-0; > 100 µM (inactive) in the assay with A498; over 100 µM in the assay on HCT-15; > 100 µM (inactive) in the assay with HOP-62; > 100 µM (inactive) with HT-29; > 100 µM (inactive) in the assay on KM12. Besides, the GI50 with LXFL 529, in the assay with OVCAR-5, in the assay on OVCAR-8, in the assay on RXF 393, in the assay on SF-268 and in the assay on SF-295 was > 100 µM (inactive) in each case. For the same compound, the GI50 with SF-539, with SK-OV-3 and in the assay with UO-31 was > 100 µM (inactive) throughout.

Turning to `COc1ccc(C2=NOP(c3ccccc3)(c3ccccc3)(c3ccccc3)C2)cc1`, the GI50 with 786-0 is 21.2 µM (inactive); in the assay on A498, 33.3 µM (inactive); in the assay with HCT-15, 20.4 µM; with HOP-62 it was 20.8 µM (inactive); in the assay on HT-29, 1.55 µM (inactive); in the assay with KM12, 34.1 µM (inactive). Further, the GI50 with LXFL 529 was 5.57 µM (inactive); in the assay on OVCAR-5 it was 4.45 µM (inactive); in the assay on OVCAR-8, 14.8 µM (inactive); in the assay with RXF 393 it was 28.9 µM (inactive); in the assay with SF-268, 40.4 µM (inactive); with SF-295, 2.92 µM (inactive). Further, the GI50 was 29.7 µM (inactive) in the assay with SF-539, 43.6 µM (inactive) with SK-OV-3 and 12.9 µM (inactive) in the assay with UO-31.

Source of the values: ChEMBL document CHEMBL1201862, “PubChem BioAssay data set” (2004).
